According to patent US20070021434A1, “NON-NUCLEOSIDE ANTI-HEPACIVIRUS AGENTS AND USES THEREOF” (Migenix Inc., priority 2005, published 2007):
pIC50: −log10 of the molar value.

Molecular target: HCV RdRp (NS5B) (UniProt P26663)
Type: biochemical, hepatitis C virus

Sequence of HCV RdRp (NS5B) (P26663 whole entry, looked up): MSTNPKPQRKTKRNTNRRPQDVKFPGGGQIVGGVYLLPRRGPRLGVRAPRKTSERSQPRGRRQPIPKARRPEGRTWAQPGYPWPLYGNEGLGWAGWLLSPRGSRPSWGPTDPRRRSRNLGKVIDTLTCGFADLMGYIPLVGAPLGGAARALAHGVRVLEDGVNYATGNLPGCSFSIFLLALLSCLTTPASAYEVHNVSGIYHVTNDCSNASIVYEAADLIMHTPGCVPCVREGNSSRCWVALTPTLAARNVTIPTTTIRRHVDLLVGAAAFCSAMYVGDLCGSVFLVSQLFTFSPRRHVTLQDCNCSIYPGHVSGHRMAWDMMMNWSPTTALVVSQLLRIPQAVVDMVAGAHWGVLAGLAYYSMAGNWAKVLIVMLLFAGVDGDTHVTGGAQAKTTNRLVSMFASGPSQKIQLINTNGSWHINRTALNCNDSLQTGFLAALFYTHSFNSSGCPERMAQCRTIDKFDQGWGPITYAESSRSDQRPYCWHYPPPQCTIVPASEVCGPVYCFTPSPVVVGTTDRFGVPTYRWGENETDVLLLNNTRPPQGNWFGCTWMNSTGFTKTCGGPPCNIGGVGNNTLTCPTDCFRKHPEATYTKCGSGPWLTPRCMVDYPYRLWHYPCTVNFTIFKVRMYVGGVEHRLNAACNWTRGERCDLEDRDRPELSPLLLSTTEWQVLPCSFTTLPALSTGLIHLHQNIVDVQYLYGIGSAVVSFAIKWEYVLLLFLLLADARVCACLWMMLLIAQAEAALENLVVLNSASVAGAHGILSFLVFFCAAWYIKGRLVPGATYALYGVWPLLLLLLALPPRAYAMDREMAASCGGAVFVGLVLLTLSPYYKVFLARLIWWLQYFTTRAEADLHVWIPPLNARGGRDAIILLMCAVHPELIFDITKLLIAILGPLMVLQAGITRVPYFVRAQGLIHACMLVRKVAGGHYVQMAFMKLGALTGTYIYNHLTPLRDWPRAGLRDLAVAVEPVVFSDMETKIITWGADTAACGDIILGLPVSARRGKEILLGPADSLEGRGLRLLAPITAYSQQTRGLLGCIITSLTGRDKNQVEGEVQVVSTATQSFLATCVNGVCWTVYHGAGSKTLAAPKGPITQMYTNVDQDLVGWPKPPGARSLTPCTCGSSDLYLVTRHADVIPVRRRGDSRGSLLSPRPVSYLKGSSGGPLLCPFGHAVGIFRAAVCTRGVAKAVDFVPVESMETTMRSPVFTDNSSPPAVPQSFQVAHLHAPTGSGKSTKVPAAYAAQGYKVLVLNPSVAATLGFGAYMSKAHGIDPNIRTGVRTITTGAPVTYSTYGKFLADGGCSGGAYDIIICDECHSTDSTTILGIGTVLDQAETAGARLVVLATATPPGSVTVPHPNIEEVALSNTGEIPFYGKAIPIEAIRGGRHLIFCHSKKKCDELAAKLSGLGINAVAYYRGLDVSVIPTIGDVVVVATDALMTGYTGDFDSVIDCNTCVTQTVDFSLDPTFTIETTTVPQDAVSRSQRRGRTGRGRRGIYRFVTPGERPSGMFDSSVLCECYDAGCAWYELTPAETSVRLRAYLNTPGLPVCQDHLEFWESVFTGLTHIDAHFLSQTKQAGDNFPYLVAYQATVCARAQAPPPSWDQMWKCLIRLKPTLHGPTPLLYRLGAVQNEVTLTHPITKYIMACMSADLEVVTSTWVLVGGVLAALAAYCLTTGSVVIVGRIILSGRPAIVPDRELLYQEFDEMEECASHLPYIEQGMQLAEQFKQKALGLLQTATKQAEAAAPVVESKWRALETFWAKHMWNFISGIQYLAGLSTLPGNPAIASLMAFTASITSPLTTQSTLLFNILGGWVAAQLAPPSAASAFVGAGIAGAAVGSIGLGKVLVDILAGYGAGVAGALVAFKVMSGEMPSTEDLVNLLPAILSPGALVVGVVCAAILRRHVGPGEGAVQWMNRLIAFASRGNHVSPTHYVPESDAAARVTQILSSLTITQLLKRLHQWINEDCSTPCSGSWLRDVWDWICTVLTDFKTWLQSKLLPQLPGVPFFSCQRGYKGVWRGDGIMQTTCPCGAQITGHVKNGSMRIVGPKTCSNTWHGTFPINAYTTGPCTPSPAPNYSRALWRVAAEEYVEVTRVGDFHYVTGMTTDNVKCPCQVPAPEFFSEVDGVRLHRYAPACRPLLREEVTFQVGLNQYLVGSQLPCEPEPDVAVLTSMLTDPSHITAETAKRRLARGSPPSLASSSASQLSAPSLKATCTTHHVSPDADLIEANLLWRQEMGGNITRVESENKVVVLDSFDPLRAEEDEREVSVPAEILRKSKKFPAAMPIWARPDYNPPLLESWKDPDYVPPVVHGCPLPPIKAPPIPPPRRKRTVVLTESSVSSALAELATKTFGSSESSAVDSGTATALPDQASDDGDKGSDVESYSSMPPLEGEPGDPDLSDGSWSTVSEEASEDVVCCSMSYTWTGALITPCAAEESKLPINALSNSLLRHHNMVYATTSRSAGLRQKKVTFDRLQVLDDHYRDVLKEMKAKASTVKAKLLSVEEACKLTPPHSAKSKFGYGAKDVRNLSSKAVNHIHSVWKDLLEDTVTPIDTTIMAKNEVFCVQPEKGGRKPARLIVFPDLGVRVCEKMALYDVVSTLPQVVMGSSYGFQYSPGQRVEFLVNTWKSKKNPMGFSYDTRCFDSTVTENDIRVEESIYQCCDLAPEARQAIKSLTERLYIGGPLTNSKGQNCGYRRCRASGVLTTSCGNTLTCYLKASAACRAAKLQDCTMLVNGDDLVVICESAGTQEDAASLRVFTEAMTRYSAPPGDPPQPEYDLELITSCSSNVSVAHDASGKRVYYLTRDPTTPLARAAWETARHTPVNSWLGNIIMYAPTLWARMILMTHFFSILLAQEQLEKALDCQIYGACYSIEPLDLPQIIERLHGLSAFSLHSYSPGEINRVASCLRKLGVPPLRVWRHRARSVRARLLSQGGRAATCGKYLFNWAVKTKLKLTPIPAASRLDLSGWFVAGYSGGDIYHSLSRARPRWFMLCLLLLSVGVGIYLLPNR

Cc1ccc(NC(=O)C(CCCCN)NC(=O)CNCc2cccc(C)c2)cc1 [Compound 339, (S)-6-AMINO-2-[2-(3-METHYL-BENZYLAMINO)-ACETYLAMINO]-HEXANOIC ACID P-TOLYLAMIDE]
pIC50: < 4.30

NCCCCCCNC(=O)C(Cc1ccccc1)NC(=O)Nc1ccc(OCc2ccccc2)cc1 [Compound 263, (S)—NR-(6-AMINO-HEXYL)-2-13-(4-BENZYLOXY-PHENYL)-UREIDO]-3-PHENYL-PROPIONAMIDE]
pIC50: 4.30 to 5.00

CCN(CC)c1ccc(NC(=O)[C@H](CCCCN)NC(=O)OCC2c3ccccc3-c3ccccc32)cc1 [Compound 106, (S)-[5-AMINO-1-(4-DIETHYLAMINO-PHENYLCARBAMOYL)-PENTYL]-CARBAMIC ACID 9H-FLUOREN-9-YLMETHYL ESTER]
pIC50: < 4.30

Cc1ccc(NC(=O)[C@H](CCCN)NC(=O)Nc2ccc(OCc3ccccc3)cc2)cc1 [Compound 189, (S)-5-AMINO-2-[3-(4-BENZYLOXY-PHENYL)-UREIDO]-PENTANOIC ACID P-TOLYLAMIDE]
pIC50: < 4.30

Cc1ccc(NC(=O)C(CCCCN)NC(=O)NC(C)c2cccc3ccccc23)cc1 [Compound 97, (S,S)-6-AMINO-2-[3-(1-NAPHTHALEN-1-YL-ETHYL)-UREIDO]-HEXANOIC ACID P-TOLYLAMIDE]
pIC50: < 4.30

Cc1ccc(NC(=O)C(CCC(N)=O)NC(=O)OCC2c3ccccc3-c3ccccc32)cc1 [Compound 382, (R)-(3-CARBAMOYL-1-P-TOLYLCARBAMOYL-PROPYL)-CARBAMIC ACID 9H-FLUOREN-9-YLMETHYL ESTER]
pIC50: < 4.30

COc1ccc(NC(=O)[C@H](CCCCN)NC(=O)OCC2c3ccccc3-c3ccccc32)cc1 [Compound 83, (S)-[5-AMINO-1-(4-METHOXY-PHENYLCARBAMOYL)-PENTYL]-CARBAMIC ACID 9H-FLUOREN-9-YLMETHYL ESTER]
pIC50: 4.30 to 5.00

CC(C)(NC(=O)c1ccc(C(=O)O)cc1)C(=O)Nc1ccc(CN(C(=O)c2ccco2)C2CCCCC2)cc1 [Compound 4, N-[1-(4-{[CYCLOHEXYL-(FURAN-2-CARBONYL)-AMINO]-METHYL}-PHENYLCARBAMOYL)-1-METHYL-ETHYL]-TERE[…]]
pIC50: < 4.30

COc1ccccc1CNCC(=O)N[C@@H](CCCCN)C(=O)Nc1ccc(C)cc1 [Compound 341, (S)-6-AMINO-2-[2-(2-METHOXY-BENZYLAMINO)-ACETYLAMINO]-HEXANOIC ACID P-TOLYLAMIDE]
pIC50: < 4.30

Cc1ccc(NC(=O)[C@@H](CCCN)NC(=O)Nc2ccc(OCc3ccccc3)cc2)cc1 [Compound 192, (R)-5-AMINO-2-[3-(4-BENZYLOXY-PHENYL)-UREIDO]-PENTANOIC ACID P-TOLYLAMIDE]
pIC50: < 4.30

CC[C@H](NC(=O)OCC1c2ccccc2-c2ccccc21)C(=O)Nc1ccc(CN(C(=O)c2ccco2)C2CCCCC2)cc1 [Compound 28, (S)-[1-(4-{[CYCLOHEXYL-(FURAN-2-CARBONYL)-AMINO]-METHYL}-PHENYLCARBAMOYL)-PROPYL]-CARBAMIC ACID 9H-FLUOREN-9-YLMETHYL ESTER]
pIC50: < 4.30

NCCCC[C@H](NC(=O)Nc1ccc(OCc2ccccc2)cc1)C(=O)NCc1ccco1 [Compound 302, (S)-6-AMINO-2-[3-(4-BENZYLOXY-PHENYL)-UREIDO]-HEXANOIC ACID (FURAN-2-YLMETHYL)-AMIDE]
pIC50: < 4.30

Cc1ccc(NC(=O)[C@H](CCCCN)NC(=O)Nc2ccc(NCc3ccc(F)cc3)cc2)cc1 [Compound 225, (S)-6-AMINO-2-{3-[4-(4-FLUORO-BENZYLAMINO)-PHENYL]-UREIDO}-HEXANOIC ACID P-TOLYLAMIDE]
pIC50: < 4.30

Cc1ccc(NC(=O)C(CCCCN)NC(=O)Nc2ccc3ccccc3c2)cc1 [Compound 72, (S)-6-AMINO-2-(3-NAPHTHALEN-2-YL-UREIDO)-HEXANOIC ACID P-TOLYLAMIDE]
pIC50: 4.30 to 5.00

NCCCC[C@H](NC(=O)OCC1c2ccccc2-c2ccccc21)C(=O)Nc1cccc2[nH]ccc12 [Compound 208, (S)-[5-AMINO-1-(1H-INDOL-4-YLCARBAMOYL)-PENTYL]-CARBAMIC ACID 9H-FLUOREN-9-YLMETHYL ESTER]
pIC50: > 5.00

NCCCC[C@H](NC(=O)OCC1c2ccccc2-c2ccccc21)C(=O)Nc1cccc(C(F)(F)F)c1 [Compound 218, (S)-[5-AMINO-1-(3-TRIFLUOROMETHYL-PHENYLCARBAMOYL)-PENTYL]-CARBAMIC ACID 9H-FLUOREN-9-YLMETHYL ESTER]
pIC50: < 4.30

Cc1ccc(NC(=O)[C@H](CCCCN)NS(=O)(=O)c2cc(Cl)sc2Cl)cc1 [Compound 395, (S)-6-AMINO-2-(2,5-DICHLORO-THIOPHENE-3-SULFONYLAMINO)-HEXANOIC ACID P-TOLYLAMIDE]
pIC50: < 4.30

Cc1ccc(NC(=O)[C@H](CCCCN)NC(=O)Nc2ccc(OCc3cc(F)ccc3F)cc2)cc1 [Compound 286, (S)-6-AMINO-2-{3-[4-(2,5-DIFLUORO-BENZYLOXY)-PHENYL]-UREIDO}-HEXANOIC ACID P-TOLYLAMIDE]
pIC50: > 5.00

Cc1ccc(NC(=O)C(CCCCN)NC(=O)Nc2ccc(OC(C)c3ccccc3)cc2)cc1 [Compound 277, (2S)-6-AMINO-2-{3-[4-(1-PHENYL-ETHOXY)-PHENYL]-UREIDO}-HEXANOIC ACID P-TOLYLAMIDE]
pIC50: < 4.30

Cc1ccc(NC(=O)C(CNC(=O)CNC(=O)CN)NC(=O)OCC2c3ccccc3-c3ccccc32)cc1 [Compound 222, (S)-{2-[2-(2-AMINO-ACETYLAMINO)-ACETYLAMINO]-1-P-TOLYLCARBAMOYL-ETHYL}-CARBAMIC ACID 9H-FLUOREN-9-YLMETHYL ESTER]
pIC50: 4.30 to 5.00

CSCCC(NC(=O)OCC1c2ccccc2-c2ccccc21)C(=O)Nc1ccc(C)cc1 (stereo not drawn) [Compound 112]
pIC50: < 4.30

NCCC[C@H](NC(=O)OCC1c2ccccc2-c2ccccc21)C(=O)Nc1ccc(C2CCCCC2)cc1 [Compound 200, (S)-[4-AMINO-1-(4-CYCLOHEXYL-PHENYLCARBAMOYL)-BUTYL]-CARBAMIC ACID 9H-FLUOREN-9-YLMETHYL ESTER]
pIC50: > 5.00

NCCCC[C@H](NC(=O)OCC1c2ccccc2-c2ccccc21)C(=O)Nc1cccc(F)c1 [Compound 80, (S)-[5-AMINO-1-(3-FLUORO-PHENYLCARBAMOYL)-PENTYL]-CARBAMIC ACID 9H-FLUOREN-9-YLMETHYL ESTER]
pIC50: < 4.30

Cc1ccc(NC(=O)[C@H](CCCCN)NS(=O)(=O)c2ccc(Cl)c(Cl)c2)cc1 [Compound 392, (S)-6-AMINO-2-(3,4-DICHLORO-BENZENESULFONYLAMINO)-HEXANOIC ACID P-TOLYLAMIDIE]
pIC50: < 4.30

Cc1ccc(NC(=O)C(CCCCN)NC(=O)CNCCc2c[nH]c3ccccc23)cc1 [Compound 335, (S)-6-AMINO-2-{2-[2-(1H-INDOL-3-YL)-ETHYLAMINO]-ACETYLAMINO}-HEXANOIC ACID P-TOLYLAMIDE]
pIC50: < 4.30

Cc1ccc(NC(=O)C(Cc2ccc(N)cc2)NC(=O)OCC2c3ccccc3-c3ccccc32)cc1 [Compound 180, (S)-[2-(4-AMINO-PHENYL)-1-P-TOLYLCARBAMOYL-ETHYL]-CARBAMIC ACID 9H-FLUOREN-9-YLMETHYL ESTER]
pIC50: < 4.30

Cc1ccc(NC(=O)C(CCCCN)NC(=O)C2c3ccccc3-c3ccccc32)cc1 [Compound 52, (S)-9H-FLUORENE-9-CARBOXYLIC ACID (5-AMINO-1-P-TOLYLCARBAMOYL-PENTYL)-AMIDE]
pIC50: < 4.30

COc1ccccc1NCC(=O)N[C@@H](CCCCN)C(=O)Nc1ccc(C)cc1 [Compound 357, (S)-6-AMINO-2-[2-(2-METHOXY-PHENYLAMINO)-ACETYLAMINO]-HEXANOIC ACID P-TOLYLAMIDE]
pIC50: < 4.30

Cc1ccc(NC(=O)C(CCCN)NC(=O)Nc2ccc(-c3ccccc3)cc2)cc1 [Compound 188, (S)-5-AMINO-2-(3-BIPHENYL-4-YL-UREIDO)-PENTANOIC ACID P-TOLYLAMIDE]
pIC50: < 4.30

NCCCC[C@H](NC(=O)Nc1ccc(OCc2ccccc2)cc1)C(=O)N1CCOCC1 [Compound 318, (S)-l -[5-AMINO-1-(MORPHOLINE-4-CARBONYL)-PENTYL]-3-(4-BENZYLOXY-PHENYL)-UREA]
pIC50: 4.30 to 5.00

NCCCC[C@@H](NC(=O)NCc1ccc(Cl)c(Cl)c1)C(=O)Nc1ccc(C2CCCCC2)cc1 [Compound 165, (R)-6-AMINO-2-[3-(3,4-DICHLORO-BENZYL)-UREIDO]-HEXANOIC ACID (4-CYCLOHEXYL-PHENYL)-AMIDE]
pIC50: 4.30 to 5.00

CN1CCN(C(=O)[C@H](CCCCN)NC(=O)Nc2ccc(OCc3ccccc3)cc2)CC1 [Compound 289, (S)-1-[5-AMINO-1-(4-METHYL-PIPERAZINE-1-CARBONYL)-PENTYL]-3-(4-BENZYLOXY-PHENYL)-UREA]
pIC50: < 4.30

Cc1ccc(NC(=O)C(CCNC(=O)CN)NC(=O)OCC2c3ccccc3-c3ccccc32)cc1 [Compound 221, (S)-[3-(2-AMINO-ACETYLAMINO)-1-P-TOLYLCARBAMOYL-PROPYL]-CARBAMIC ACID 9H-FLUOREN-9-YLMETHYL ESTER]
pIC50: < 4.30

Cc1ccc(NC(=O)C(CCN)NC(=O)OCC2c3ccccc3-c3ccccc32)cc1 [Compound 400, (R)-(3-AMINO-1-P-TOLYLCARBAMOYL-PROPYL)-CARBAMIC ACID 9H-FLUOREN-9-YLMETHYL ESTER]
pIC50: < 4.30

NCCCCN(CC(=O)Nc1ccc(C2CCCCC2)cc1)C(=O)Nc1ccc(OCc2ccccc2)cc1 [Compound 323, 2-[1-(4-AMINO-BUTYL)-3-(4-BENZYLOXY-PHENYL)-UREIDO]-N-(4-CYCLOHEXYL-PHENYL)-ACETAMIDE]
pIC50: < 4.30

Cc1ccc(NC(=O)[C@H](CCCCN)NC(=O)CNCc2ccc(F)cc2)cc1 [Compound 346, (S)-6-AMINO-2-[2-(4-FLUORO-BENZYLAMINO)-ACETYLAMINO]-HEXANOIC ACID P-TOLYLAMIDE]
pIC50: < 4.30

O=C(CC1CNCCN1C(=O)Nc1ccc(-c2ccccc2)cc1)Nc1ccc(C2CCCCC2)cc1 (stereo not drawn) [Compound 161, 2-[(4-CYCLOHEXYL-PHENYLCARBAMOYL)-METHYL]-PIPERAZINE-1-CARBOXYLIC ACID BIPHENYL-4-YLAMIDE]
pIC50: 4.30 to 5.00

Cc1ccc(NC(=O)[C@H](CCCCN)NC(=O)CNCc2ccc(Cl)cc2)cc1 [Compound 349, (S)-6-AMINO-2-[2-(4-CHLORO-BENZYLAMINO)-ACETYLAMINO]-HEXANOIC ACID P-TOLYLAMIDE]
pIC50: < 4.30

NCCCC[C@H](NC(=O)c1cccc2ccccc12)C(=O)Nc1ccc(CN(C(=O)c2ccco2)C2CCCCC2)cc1 [Compound 24, (S)-FURAN-2-CARBOXYLIC ACID (4-{6-AMINO-2-[(NAPHTHALENE-1-CARBONYL)-AMINO]-HEXANOYLAMINO}-BENZYL)-CYCLOHEXYL-AMIDE]
pIC50: 4.30 to 5.00
